In ChEMBL document CHEMBL2424629, “Structure-based design, synthesis, and anticonvulsant activity of isatin-1-N-phenylacetamide derivatives” (Med Chem Res, 2013):
Active and inactive are the calls of the source. The rule behind the calls is not given here.

Columns and labels:
Mus musculus [1] = test: Neurotoxicity in BALB/c mouse at 300 mg/kg, ip after 0.5 to 4 hrs by rotarod test; format: toxicity, organism-based; parameters: dose 300 mg/kg, route intraperitoneal; details: in vivo
Mus musculus [2] = test: Neurotoxicity in BALB/c mouse at 100 mg/kg, ip after 0.5 to 4 hrs by rotarod test; format: toxicity, organism-based; parameters: dose 100 mg/kg, route intraperitoneal; details: in vivo
Mus musculus [3] = species: Mus musculus; test: Protective index, ratio of TD50 for BALB/c mouse by rotarod test to ED50 for BALB/c mouse by maximal electroshock seizure test; format: functional
[4] = Neurotoxicity in ip dosed BALB/c mouse after 30 mins by rotarod test; format: toxicity, organism-based; details: in vivo
Mus musculus [5] = test: Anticonvulsant activity in BALB/c mouse assessed as protection against maximal electroshock-induced seizure at 100 mg/kg, ip after 0.5 to 4 hrs; format: functional, organism-based; parameters: dose 100 mg/kg
Mus musculus [6] = test: Anticonvulsant activity in ip dosed BALB/c mouse assessed as protection against maximal electroshock-induced seizure after 30 mins; format: functional; details: 0.5 h
Mus musculus [7] = test: Anticonvulsant activity in BALB/c mouse assessed as protection against maximal electroshock-induced seizure at 300 mg/kg, ip after 0.5 to 4 hrs; format: functional, organism-based; parameters: dose 300 mg/kg

| SMILES | Activity (Mus musculus [1]) | Activity (Mus musculus [2]) | Ratio TD50/ED50 (Mus musculus [3]) | TD50 at 0.5 h [4] | Activity (Mus musculus [5]) | ED50 (Mus musculus [6]) | Activity (Mus musculus [7]) |
| --- | --- | --- | --- | --- | --- | --- | --- |
| Cc1ccc2c(c1)C(=O)C(=O)N2CC(=O)Nc1ccccc1 | Non-toxic | Non-toxic | >11 | > 1000 mg/kg | Active | 91.3 mg/kg | – |
| O=C(CN1C(=O)C(=O)c2cc(Cl)ccc21)Nc1ccccc1 | Non-toxic | Non-toxic | >7.3 | > 800 mg/kg | Active | 110 mg/kg | – |
| O=C(CN1C(=O)C(=O)c2ccccc21)Nc1ccccc1 | Non-toxic | Non-toxic | >10.6 | > 1000 mg/kg | Active | 94.7 mg/kg | – |
| NC(=O)N1c2ccccc2C=Cc2ccccc21 [CARBAMAZEPINE] | – | – | – | > 71.6 mg/kg | – | 8.8 mg/kg | – |
| O=C(CN1C(=O)C(=O)c2ccc(Cl)cc21)Nc1ccccc1 | Non-toxic | Non-toxic | – | – | inactive | – | – |
| Cc1ccc2c(c1)N(CC(=O)Nc1ccccc1)C(=O)C2=O | Non-toxic | Non-toxic | >7.3 | > 1000 mg/kg | Active | 136 mg/kg | – |
| CCC1(c2ccccc2)C(=O)NC(=O)NC1=O [PHENOBARBITAL] | – | – | – | > 69 mg/kg | – | 21.8 mg/kg | – |
| O=C(CN1C(=O)C(=O)c2cc(F)ccc21)Nc1ccccc1 | Non-toxic | Non-toxic | >9.1 | > 800 mg/kg | Active | 88 mg/kg | – |
| O=C(CN1C(=O)C(=O)c2ccc(F)cc21)Nc1ccccc1 | Non-toxic | Non-toxic | – | – | inactive | – | – |
| O=C(CN1C(=O)C(=O)c2cc(Br)ccc21)Nc1ccccc1 | Non-toxic | Non-toxic | – | – | Active | – | – |
| O=C1Nc2ccccc2C1=O [ISATIN] | Non-toxic | Non-toxic | – | – | – | – | Active |
| Cc1cccc2c1N(CC(=O)Nc1ccccc1)C(=O)C2=O | Non-toxic | Non-toxic | >8.8 | > 1000 mg/kg | Active | 114 mg/kg | – |
| O=C(CN1C(=O)C(=O)c2cccc(Br)c21)Nc1ccccc1 | Non-toxic | Non-toxic | – | – | inactive | – | – |
| O=C(CN1C(=O)C(=O)c2cccc(Cl)c21)Nc1ccccc1 | Non-toxic | Non-toxic | – | – | Active | – | – |
| O=C(CN1C(=O)C(=O)c2cc(Br)cc(Br)c21)Nc1ccccc1 | Non-toxic | Non-toxic | – | – | – | – | Active |
| O=C(CN1C(=O)C(=O)c2cccc([N+](=O)[O-])c21)Nc1ccccc1 | Non-toxic | Non-toxic | – | – | Active | – | – |
| O=C(CN1C(=O)C(=O)c2ccc(Br)cc21)Nc1ccccc1 | Non-toxic | Non-toxic | – | – | inactive | – | – |
